Data: patent publication US20250009745A1, “CDK INHIBITOR” (SHANGHAI QILU PHARMACEUTICAL RESEARCH AND DEVELOPMENT …, priority 2021, published 2025)

Experiments:
Test in all cases: CDK enzymology experiment in vitro, capillary mobility shift assay (MSA)
Type in all cases: biochemical
CDK6 = target: T1, CDK6 (Homo sapiens, UniProt Q00534); conditions: read-out: CDK6 (nM) inhibitory IC50
T1 construct: purchased Carna Company

CDK1 = target: T2, CDK1 (Homo sapiens, UniProt P06493); conditions: read-out: CDK1 (nM) inhibitory IC50
T2 construct: purchased Carna Company
Method in brief: (§1)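 Recombinant kinases tested against peptide substrates in 1× kinase buffer, with compound added as a 100-fold DMSO stock. Top concentration 1, 10 or 30 μM, 3-fold dilutions over 10 points, in duplicate. Substrate conversion read by Caliper EZ Reader, normalised to no-enzyme and no-compound controls, and IC50 fitted with a variable-slope log(inhibitor)–response model.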

CDK4 = target: T3, CDK4 (Homo sapiens, UniProt P11802); conditions: read-out: CDK4 (nM) inhibitory IC50
T3 construct: purchased Carna Company
Method in brief: as §1

CDK7 = target: T4, CDK7 (Homo sapiens, UniProt P50613); conditions: read-out: CDK7 (nM) inhibitory IC50
T4 construct: purchased Carna Company
Method in brief: as §1

CDK9 = target: T5, CDK9 (Homo sapiens, UniProt P50750); conditions: read-out: CDK9 (nM) inhibitory IC50
T5 construct: purchased Carna Company
Method in brief: as §1

CDK2 = target: T6, CDK2 (Homo sapiens, UniProt P24941); conditions: read-out: CDK2 (nM) inhibitory IC50
T6 construct: purchased Carna Company
Method in brief: as §1

T3 sequence (P11802 whole entry): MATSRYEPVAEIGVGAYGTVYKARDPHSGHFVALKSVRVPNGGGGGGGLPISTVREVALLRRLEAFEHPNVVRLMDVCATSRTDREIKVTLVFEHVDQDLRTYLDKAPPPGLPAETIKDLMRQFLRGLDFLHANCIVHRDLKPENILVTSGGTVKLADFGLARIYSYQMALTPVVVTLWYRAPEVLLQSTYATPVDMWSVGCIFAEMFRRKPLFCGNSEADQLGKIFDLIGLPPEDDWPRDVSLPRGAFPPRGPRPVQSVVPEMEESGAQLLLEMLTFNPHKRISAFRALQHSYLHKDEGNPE
T3 sequence (P30281 whole entry partner): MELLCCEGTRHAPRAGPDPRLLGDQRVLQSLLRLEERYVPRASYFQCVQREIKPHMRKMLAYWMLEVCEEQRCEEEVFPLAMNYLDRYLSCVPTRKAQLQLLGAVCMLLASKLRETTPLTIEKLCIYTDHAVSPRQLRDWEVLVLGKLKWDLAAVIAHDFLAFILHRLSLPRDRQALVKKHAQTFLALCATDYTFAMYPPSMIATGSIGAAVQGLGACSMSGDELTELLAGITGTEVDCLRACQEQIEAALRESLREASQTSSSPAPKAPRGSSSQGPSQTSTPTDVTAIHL
T2 sequence (P06493 whole entry): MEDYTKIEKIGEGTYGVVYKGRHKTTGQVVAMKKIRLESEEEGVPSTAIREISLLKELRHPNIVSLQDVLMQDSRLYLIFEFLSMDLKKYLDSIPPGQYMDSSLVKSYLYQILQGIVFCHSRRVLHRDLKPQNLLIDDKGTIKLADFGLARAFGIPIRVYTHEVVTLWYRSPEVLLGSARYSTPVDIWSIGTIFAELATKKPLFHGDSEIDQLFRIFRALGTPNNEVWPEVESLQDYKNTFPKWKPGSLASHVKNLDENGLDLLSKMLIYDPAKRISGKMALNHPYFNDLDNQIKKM
T2 sequence (P14635 whole entry partner): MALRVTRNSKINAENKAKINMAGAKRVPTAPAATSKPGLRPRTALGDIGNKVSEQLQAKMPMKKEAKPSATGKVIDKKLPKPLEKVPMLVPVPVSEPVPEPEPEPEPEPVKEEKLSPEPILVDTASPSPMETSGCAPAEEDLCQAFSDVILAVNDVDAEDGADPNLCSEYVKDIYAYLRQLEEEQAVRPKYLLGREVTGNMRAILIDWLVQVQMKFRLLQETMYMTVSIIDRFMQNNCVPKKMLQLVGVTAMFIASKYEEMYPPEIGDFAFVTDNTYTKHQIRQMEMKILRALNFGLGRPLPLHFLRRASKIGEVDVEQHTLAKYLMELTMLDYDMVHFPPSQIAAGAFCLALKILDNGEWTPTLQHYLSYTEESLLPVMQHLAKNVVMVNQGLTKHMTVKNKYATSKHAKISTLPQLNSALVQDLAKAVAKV
T4 sequence (P50613 whole entry): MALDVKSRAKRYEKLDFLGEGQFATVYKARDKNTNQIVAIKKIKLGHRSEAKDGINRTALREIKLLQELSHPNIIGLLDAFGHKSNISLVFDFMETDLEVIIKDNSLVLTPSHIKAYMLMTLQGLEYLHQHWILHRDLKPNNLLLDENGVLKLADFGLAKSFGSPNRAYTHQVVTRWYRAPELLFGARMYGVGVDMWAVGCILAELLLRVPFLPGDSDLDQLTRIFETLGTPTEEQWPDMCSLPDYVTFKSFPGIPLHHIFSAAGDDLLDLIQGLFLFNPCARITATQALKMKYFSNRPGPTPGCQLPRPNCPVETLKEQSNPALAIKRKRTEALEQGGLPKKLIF
T4 sequence (P51946 whole entry partner): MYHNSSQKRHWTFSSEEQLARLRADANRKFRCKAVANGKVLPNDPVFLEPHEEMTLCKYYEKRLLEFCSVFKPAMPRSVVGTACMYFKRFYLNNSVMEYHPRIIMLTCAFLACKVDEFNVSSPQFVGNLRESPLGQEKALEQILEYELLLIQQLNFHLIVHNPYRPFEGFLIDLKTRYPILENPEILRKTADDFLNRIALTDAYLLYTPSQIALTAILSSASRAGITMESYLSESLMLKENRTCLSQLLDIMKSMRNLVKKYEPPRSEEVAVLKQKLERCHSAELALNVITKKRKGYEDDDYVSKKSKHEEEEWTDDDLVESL
T4 sequence (P51948 whole entry partner): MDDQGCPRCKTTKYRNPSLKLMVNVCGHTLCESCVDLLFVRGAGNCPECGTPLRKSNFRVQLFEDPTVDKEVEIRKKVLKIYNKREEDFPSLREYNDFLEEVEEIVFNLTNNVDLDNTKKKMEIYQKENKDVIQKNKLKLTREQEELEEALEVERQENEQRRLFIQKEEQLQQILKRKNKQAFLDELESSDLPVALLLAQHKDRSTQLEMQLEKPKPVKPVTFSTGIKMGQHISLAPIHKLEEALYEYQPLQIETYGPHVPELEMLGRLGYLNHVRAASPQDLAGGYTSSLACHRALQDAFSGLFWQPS
T5 sequence (P50750 whole entry): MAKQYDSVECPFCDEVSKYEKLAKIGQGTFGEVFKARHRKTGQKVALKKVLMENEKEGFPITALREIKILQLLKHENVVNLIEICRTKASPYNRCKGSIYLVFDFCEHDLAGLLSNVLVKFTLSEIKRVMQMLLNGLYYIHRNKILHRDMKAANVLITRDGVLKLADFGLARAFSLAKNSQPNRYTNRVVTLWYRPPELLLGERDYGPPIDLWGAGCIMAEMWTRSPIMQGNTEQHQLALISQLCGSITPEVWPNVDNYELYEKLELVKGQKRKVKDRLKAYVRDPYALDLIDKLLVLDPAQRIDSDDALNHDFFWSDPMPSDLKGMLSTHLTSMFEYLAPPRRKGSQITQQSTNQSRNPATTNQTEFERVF
T5 sequence (O60563 whole entry partner): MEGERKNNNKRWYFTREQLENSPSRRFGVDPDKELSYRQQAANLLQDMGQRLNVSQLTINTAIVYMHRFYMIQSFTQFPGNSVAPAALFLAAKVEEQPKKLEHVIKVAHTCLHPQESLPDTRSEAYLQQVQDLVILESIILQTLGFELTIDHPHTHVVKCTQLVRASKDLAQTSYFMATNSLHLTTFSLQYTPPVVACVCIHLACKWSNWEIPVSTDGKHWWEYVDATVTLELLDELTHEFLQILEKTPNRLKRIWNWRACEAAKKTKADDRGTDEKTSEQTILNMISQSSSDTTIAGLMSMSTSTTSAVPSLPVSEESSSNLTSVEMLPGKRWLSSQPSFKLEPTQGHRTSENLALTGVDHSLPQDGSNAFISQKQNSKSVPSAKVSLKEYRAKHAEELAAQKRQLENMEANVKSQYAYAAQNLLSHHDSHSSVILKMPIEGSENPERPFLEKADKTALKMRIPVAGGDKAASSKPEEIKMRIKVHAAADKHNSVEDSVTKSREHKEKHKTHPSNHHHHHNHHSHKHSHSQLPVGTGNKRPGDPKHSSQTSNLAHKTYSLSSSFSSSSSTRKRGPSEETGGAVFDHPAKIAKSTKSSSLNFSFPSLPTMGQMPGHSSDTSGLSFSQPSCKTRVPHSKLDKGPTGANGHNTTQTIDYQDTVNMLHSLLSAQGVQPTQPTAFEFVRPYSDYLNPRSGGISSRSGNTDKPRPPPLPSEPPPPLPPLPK
T1 sequence (Q00534 whole entry): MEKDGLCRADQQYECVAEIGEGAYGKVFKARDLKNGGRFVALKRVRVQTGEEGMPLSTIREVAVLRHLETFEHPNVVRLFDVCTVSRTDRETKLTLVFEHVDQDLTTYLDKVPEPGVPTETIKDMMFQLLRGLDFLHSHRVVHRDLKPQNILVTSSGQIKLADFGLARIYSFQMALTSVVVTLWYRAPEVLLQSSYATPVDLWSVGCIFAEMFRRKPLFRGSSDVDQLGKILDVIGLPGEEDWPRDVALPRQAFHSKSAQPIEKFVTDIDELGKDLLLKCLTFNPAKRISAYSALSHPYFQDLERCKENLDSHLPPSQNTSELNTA
T1 sequence (P30281 whole entry partner): as the sequence (P30281 whole entry partner) above

SMILES | IC50 (CDK6) [nM] | IC50 (CDK1) [nM] | IC50 (CDK4) [nM] | IC50 (CDK7) [nM] | IC50 (CDK9) [nM] | IC50 (CDK2) [nM]
O=S(=O)(c1ccc([C@@H]2CCNC2)cc1)N1CCC(Nc2ncc(C(F)(F)F)c(O[C@H]3CCOC3)n2)CC1 (single isomer, unassigned) [Compound 151] | 0.5 to 2.5 | 10 to 50 | 0.5 to 2.5 | 10 to 50 | 100 to 1000 | 0.5 to 2.5
CN(C)C1CCN(c2ccc(S(=O)(=O)N3CCC(Nc4ncc(C(F)(F)F)c(O[C@H]5CCOC5)n4)CC3)cc2)CC1 [Compound 132] | 0.5 to 2.5 | 2.5 to 10 | 0.5 to 2.5 | 10 to 50 | 100 to 1000 | < 0.5
Cn1cc(S(=O)(=O)N2CCC(Nc3ncc(C#N)c(N[C@H]4CCOC4)n3)CC2)cn1 [Compound 44] | 50 to 100 | 100 to 1000 | 50 to 100 | 100 to 1000 | > 1000 | 2.5 to 10
Cn1cc(S(=O)(=O)N2CCC(Nc3ncc(C#N)c(N[C@@H]4CCC[C@H]4O)n3)CC2)cn1 [Compound 45] | 100 to 1000 | 10 to 50 | 10 to 50 |  |  | 2.5 to 10
CC(C)Nc1nc(NC2CCN(S(C)(=O)=O)CC2)ncc1C#N [Compound 28] | 50 to 100 | 100 to 1000 | 50 to 100 |  |  | 10 to 50
O=S(=O)(c1ccc(N2CC[C@H](O)C2)cc1)N1CCC(Nc2ncc(C(F)(F)F)c(O[C@H]3CCOC3)n2)CC1 [Compound 141] | 0.5 to 2.5 | 2.5 to 10 | 0.5 to 2.5 | 10 to 50 | 100 to 1000 | < 0.5
Cn1cnc(S(=O)(=O)N2CCC(Nc3ncc(C(F)(F)F)c(NC4CCCC4)n3)CC2)c1 [Compound 35] | 50 to 100 | 10 to 50 | 10 to 50 |  |  | 0.5 to 2.5
O=S(=O)(c1ccc(C2CCNCC2)c(F)c1)N1CCC(Nc2ncc(C(F)(F)F)c(O[C@H]3CCOC3)n2)CC1 [Compound 122] | 0.5 to 2.5 | 10 to 50 | 0.5 to 2.5 | 10 to 50 | 100 to 1000 | < 0.5
Cn1cc(-c2ccc(S(=O)(=O)N3CCC(Nc4ncc(C#N)c(NC5CCCC5)n4)CC3)cc2)cn1 [Compound 49] | 0.5 to 2.5 | 10 to 50 | 2.5 to 10 |  |  | 0.5 to 2.5
O=S(=O)(c1ccc(N2CC3(CNC3)C2)cc1)N1CCC(Nc2ncc(C(F)(F)F)c(O[C@H]3CCOC3)n2)CC1 [Compound 144] | 0.5 to 2.5 | 2.5 to 10 | 0.5 to 2.5 | 2.5 to 10 | 100 to 1000 | < 0.5

Continued, values first:

IC50 (CDK6) [nM] | IC50 (CDK1) [nM] | IC50 (CDK4) [nM] | IC50 (CDK7) [nM] | IC50 (CDK9) [nM] | IC50 (CDK2) [nM] | SMILES
0.5 to 2.5 | 10 to 50 | 2.5 to 10 | 50 to 100 | 100 to 1000 | 0.5 to 2.5 | Cn1cc(-c2ccc(S(=O)(=O)N3CCC(Nc4ncc(C#N)c(N[C@H]5CCOC5)n4)CC3)cc2)cn1 [Example 8, (S)-2-((1-((4-(1-Methyl-1H-pyrazol-4-yl)phenyl)sulfonyl)piperidin-4-yl)amino)-4-((tetrahydrofuran-3-yl)amino)pyrimidine-5-carbonitrile]
0.5 to 2.5 | 2.5 to 10 | 0.5 to 2.5 | 10 to 50 | 100 to 1000 | 0.5 to 2.5 | O=S(=O)(c1ccc([C@H]2CCNC2)cc1)N1CCC(Nc2ncc(C(F)(F)F)c(O[C@H]3CCOC3)n2)CC1 (single isomer, unassigned) [Compound 152]
0.5 to 2.5 | 2.5 to 10 | < 0.5 | 2.5 to 10 | 100 to 1000 | < 0.5 | C[C@@H]1CN(c2ccc(S(=O)(=O)N3CCC(Nc4ncc(C(F)(F)F)c(O[C@H]5CCOC5)n4)CC3)cn2)C[C@H](C)N1 [Example 117]
10 to 50 | 100 to 1000 | 10 to 50 |  |  | 10 to 50 | CS(=O)(=O)N1CCC(Nc2cc(NC3CCCC3)c(C#N)cn2)CC1 [Example 2]
0.5 to 2.5 | 2.5 to 10 | 0.5 to 2.5 | 2.5 to 10 | 100 to 1000 | < 0.5 | O=S(=O)(c1ccc(C2=CCNCC2)cc1)N1CCC(Nc2ncc(C(F)(F)F)c(O[C@H]3CCOC3)n2)CC1 [Example 100, (S)-4-((Tetrahydrofuran-3-yl)oxy)-N-(1-((4-(1,2,3,6-tetrahydropyridin-4-yl)phenyl)sulfonyl)piperidin-4-yl)-5-(trifluoromethyl)pyrimidin-2-amine]
0.5 to 2.5 | 2.5 to 10 | 0.5 to 2.5 | 2.5 to 10 | 100 to 1000 | < 0.5 | O=S(=O)(c1ccc([C@H]2CCCNC2)cc1)N1CCC(Nc2ncc(C(F)(F)F)c(O[C@H]3CCOC3)n2)CC1 (single isomer, unassigned) [Example 115]
10 to 50 | 100 to 1000 | 10 to 50 |  |  | 10 to 50 | CS(=O)(=O)N1CCC(Nc2ncc(C#N)c(NC3CCCC3)n2)CC1 [Example 1]
0.5 to 2.5 | 10 to 50 | 0.5 to 2.5 | 10 to 50 | 100 to 1000 | 0.5 to 2.5 | N#Cc1cnc(NC2CCN(S(=O)(=O)c3ccc(C4=CCNCC4)cc3)CC2)nc1NC1CCCC1 [Example 15, 4-(Cyclopentylamino)-2-((1-((4-(1,2,3,6-tetrahydropyridin-4-yl)phenyl)sulfonyl)piperidin-4-yl)amino)pyrimidine-5-carbonitrile]
